Test system: C57Bl6 mice on a high fat diet
Assay: GPR120 DIO Mice OGTT Screening
Format: in vivo, mouse
Settings: 10 mg/kg dosed 30 min before glucose, glucose AUC −30 to 90 min, change from vehicle, printed as %
Method: 18-22 week old, C57Bl6 mice on a high fat diet (60% HFD) for 12-16 weeks (ave. body weight ˜37-41 g) were fasted for 6 hr, with removal of food occurring at 7 am on the morning of the study. The animals were sorted into treatment groups the day before the study by body weight. Animals outside the bounds of ˜30-50 g were left out of the study. The animals had been handled and shammed a total of 5-8 days (1-3 days immediately prior to the study). Glucose (in 1 ml syringes) was drawn up the morning of the study. Test compounds were kept spinning and were only drawn into 1 ml syringes prior to study commencement. Animals were bled via tail snip to determine basal glucose levels prior to dosing of treatments. […]
Animals were moved into the testing room at ˜9-11 am, to yield them time to acclimate. […] All groups were dosed 30 minutes prior to glucose administration at a dose volume of 10 ml/kg (the dose volume was calculated separately for each individual animal). […]
Thirty minutes after the first dose (with test compound) animals were bled again for a second baseline, or T=0, and immediately dosed with glucose (20% solution; TEKNOVA, 250 ml sterile bottle w/catalogue number G0525) via a PO injection. The exact dose volume for glucose was also calculated separately for each individual animal.
Blood glucose was measured at 15, 30, 45, 60, and 90 minutes post-glucose administration via the snipped tail. […]

Row | SMILES | DIO Lowering Glucose AUC (−30 to 90) @10 mg/kg [%]
1 | Cc1cc2cc(Cl)c(C)c(COc3ccc(CCC(=O)O)c(C)c3C)c2o1 [Compound 85, 3-{4-[(5-Chloro-2,6-dimethyl-1-benzofuran-7-yl)methoxy]-2,3-dimethylphenyl}propanoic acid] | −37
2 | Cc1cc2c(F)c(OC(F)(F)F)c(F)c(COc3ccc(CCC(=O)O)c(F)c3F)c2o1 [Compound 75, 3-(4-{[4,6-Difluoro-2-methyl-5-(trifluoromethoxy)-1-benzofuran-7-yl]methoxy}-2,3-difluorophenyl)propanoic acid] | −31
